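Values below derive from 48-hour exposures of cells grown in 96-well plates, with endpoints linearly interpolated between the two concentrations bracketing the appropriate inhibition level. At the GI50, growth is halved.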 Activity calls are given as the source filed them. Rule as the data show it: active = GI50 up to about 1.1 µM and inactive = higher. Some results are limits rather than exact numbers.

Some test systems named below: NCI-H23; Malme-3M; A498; U-251; EKVX; OVCAR-3; TK-10; HOP-92; CCRF-CEM; T47D; RXF 393; MDA-N; SK-OV-3; HCT-15; 786-0; ACHN; SNB-75; SNB-19; NCI-H460.
Common to all, as to assay: NCI-60 cell line screen, 48 h

Consider `CCCCc1ccc(Nc2nc(O)c3ncn(COCCO)c3n2)cc1`, for which the GI50 is 93.8 µM (inactive) in the experiment on NCI-H23; > 100 µM (inactive) in the experiment with Malme-3M; > 100 µM (inactive) in the experiment on A498; 57.4 µM (inactive) with U-251; > 100 µM (inactive) in the experiment on EKVX; > 100 µM (inactive) in the experiment on OVCAR-3. Also, the GI50 was > 100 µM (inactive) in the experiment with TK-10; > 100 µM (inactive) with HOP-92; > 100 µM (inactive) with CCRF-CEM; 73.1 µM (inactive) with T47D; > 100 µM (inactive) in the experiment with RXF 393; > 100 µM (inactive) in the experiment on MDA-N. Also, the GI50 in the experiment with SK-OV-3 was > 100 µM (inactive); in the experiment on HCT-15, > 100 µM; in the experiment with 786-0, 44.1 µM (inactive); in the experiment on ACHN, > 100 µM (inactive); in the experiment with SNB-75, > 100 µM (inactive); in the experiment on SNB-19 it was 75.7 µM (inactive).
Take `O=C(NCCCNC(=O)c1ccc2c(O)c(O)ccc2c1)c1ccc2c(O)c(O)ccc2c1`: the GI50 in the experiment on NCI-H23 was 22.1 µM (inactive); in the experiment on Malme-3M, > 95.5 µM (inactive); in the experiment on A498 it was > 48.3 µM (inactive); with U-251, 24.1 µM (inactive); in the experiment on EKVX it was 32.4 µM (inactive); with OVCAR-3 it was 22.8 µM (inactive). Moreover, the GI50 in the experiment with TK-10 was 43.8 µM (inactive); with HOP-92, 31 µM (inactive); with CCRF-CEM, 5.18 µM (inactive); in the experiment with T47D, > 100 µM (inactive); in the experiment on RXF 393, 27.3 µM (inactive); in the experiment on MDA-N it was 19.1 µM (inactive). For the same compound, the GI50 was > 100 µM (inactive) in the experiment on SK-OV-3; 27.6 µM in the experiment on HCT-15; 23.9 µM (inactive) in the experiment with 786-0; 24.2 µM (inactive) in the experiment with ACHN; 17.1 µM (inactive) in the experiment with SNB-75; 25.7 µM (inactive) in the experiment with SNB-19.
With `CN(O)C(=O)c1cccc(Cl)c1`, the GI50 with NCI-H23, with A498, in the experiment on U-251, with EKVX, in the experiment on OVCAR-3 and in the experiment on TK-10 was > 100 µM (inactive) in each case. Moreover, the GI50 in the experiment with HOP-92 is > 100 µM (inactive); with CCRF-CEM it was 60 µM (inactive); in the experiment on T47D it was > 100 µM (inactive); in the experiment on RXF 393, > 100 µM (inactive); in the experiment with MDA-N, > 100 µM (inactive); in the experiment on SK-OV-3 it was > 100 µM (inactive). Also, the GI50 in the experiment on HCT-15 was 56.1 µM; in the experiment with NCI-H460, 95.1 µM (inactive); in the experiment with 786-0, > 100 µM (inactive); in the experiment with ACHN it was > 100 µM (inactive); with SNB-75, > 100 µM (inactive); with SNB-19, > 100 µM (inactive).
For the compound `CCOC(=O)C(C)c1nc2cc(N3CCN(C)CC3)c(F)cc2[nH]c1=O` (stereo not given), the GI50 in the experiment with NCI-H23 is > 100 µM (inactive); in the experiment on Malme-3M, 28.9 µM (inactive); in the experiment with A498, > 100 µM (inactive); with U-251 it was > 100 µM (inactive); in the experiment on EKVX, > 100 µM (inactive); with OVCAR-3 it was > 100 µM (inactive). Also, the GI50 in the experiment on HOP-92, in the experiment on CCRF-CEM, in the experiment with T47D, in the experiment with RXF 393, in the experiment with MDA-N and with SK-OV-3 was > 100 µM (inactive) each time. Further, the GI50 in the experiment with HCT-15 was > 100 µM; in the experiment on NCI-H460 it was > 100 µM (inactive); in the experiment with 786-0 it was > 100 µM (inactive); in the experiment with ACHN, > 100 µM (inactive); in the experiment on SNB-75, > 100 µM (inactive); with SNB-19, > 100 µM (inactive).
Turning to `CC(C)(C)C1=NC(=P(c2ccccc2)(c2ccccc2)c2ccccc2)C(=O)O1`, the GI50 in the experiment with NCI-H23 was > 100 µM (inactive); in the experiment on Malme-3M, 98.4 µM (inactive); in the experiment on A498, > 100 µM (inactive); in the experiment with U-251, > 100 µM (inactive); in the experiment on EKVX, 22.5 µM (inactive); with TK-10, > 100 µM (inactive). The GI50 in the experiment with HOP-92, with CCRF-CEM, with T47D, in the experiment with RXF 393, in the experiment on MDA-N and with SK-OV-3 was > 100 µM (inactive) in each case. Further, the GI50 was > 100 µM (inactive) with 786-0, > 100 µM (inactive) with ACHN, 6.21 µM (inactive) in the experiment on SNB-75 and > 100 µM (inactive) in the experiment with SNB-19.
For the compound `CCOC(=O)C1C(C(C)C)C2(C#N)C(=N)OC1(C)C2(C#N)C#N` (stereo not given), the GI50 was 54.5 µM (inactive) in the experiment with NCI-H23; 40.8 µM (inactive) with Malme-3M; > 100 µM (inactive) in the experiment with A498; 82.4 µM (inactive) in the experiment with U-251; 78.3 µM (inactive) in the experiment on EKVX; > 100 µM (inactive) in the experiment on TK-10. For the same compound, the GI50 with HOP-92 was 21.2 µM (inactive); with CCRF-CEM it was 47 µM (inactive); with T47D, 49.7 µM (inactive); in the experiment on RXF 393, 36.3 µM (inactive); in the experiment on MDA-N, 16.2 µM (inactive); with SK-OV-3, > 100 µM (inactive). In addition, the GI50 with HCT-15 is 49.3 µM; in the experiment on 786-0, 54 µM (inactive); in the experiment with ACHN it was > 100 µM (inactive); in the experiment with SNB-75 it was 13.3 µM (inactive); with SNB-19, > 100 µM (inactive).
As to `O=C(OC1OC2COC(=O)c3cc(O)c(O)c(O)c3-c3c(cc(O)c(O)c3O)C(=O)OC3C2OC(=O)[C@@]24CC(=O)[C@@](O)(OC25C(=O)O[C@H]2[C@@H](O)CO[C@@]25O)C2(O)Oc5c(O)c(O)cc(c5C24)C(=O)OC13)c1cc(O)c(O)c(O)c1` (stereo not given in full), the GI50 with NCI-H23 is 25.7 µM (inactive); with Malme-3M it was > 100 µM (inactive); in the experiment with A498, 9.12 µM (inactive); with U-251 it was 39.6 µM (inactive); in the experiment on EKVX, 34.8 µM (inactive); in the experiment with OVCAR-3 it was 50 µM (inactive). In addition, the GI50 was 31.2 µM (inactive) in the experiment on HOP-92; 26.7 µM (inactive) in the experiment with CCRF-CEM; 74 µM (inactive) in the experiment on T47D; > 100 µM (inactive) in the experiment on RXF 393; 31.5 µM (inactive) in the experiment on MDA-N; 83 µM (inactive) with SK-OV-3. In addition, the GI50 in the experiment with HCT-15 is 22.9 µM; in the experiment with NCI-H460 it was 40.9 µM (inactive); in the experiment on 786-0, 63.1 µM (inactive); in the experiment with ACHN it was 32.1 µM (inactive); in the experiment on SNB-75 it was 34 µM (inactive); in the experiment with SNB-19, > 100 µM (inactive).
Consider `Cc1c2c(cc3c1C(=O)C(O)=C([C@@H](C)CO)C3=O)C(C)(C)CCC2`, for which the GI50 in the experiment on NCI-H23 is 17.7 µM (inactive); in the experiment on Malme-3M, 22.8 µM (inactive); in the experiment on A498, 25.6 µM (inactive); with U-251 it was 17.5 µM (inactive); in the experiment with EKVX it was 15.6 µM (inactive); with OVCAR-3 it was 27 µM (inactive). Moreover, the GI50 is 42.4 µM (inactive) with TK-10; 35 µM (inactive) in the experiment with HOP-92; 10.1 µM (inactive) in the experiment on CCRF-CEM; 32.8 µM (inactive) with T47D; 32.1 µM (inactive) in the experiment on RXF 393; 30.7 µM (inactive) in the experiment with MDA-N. Besides, the GI50 with SK-OV-3 was 32.7 µM (inactive); in the experiment with HCT-15, 29.4 µM; in the experiment with 786-0, 32.3 µM (inactive); in the experiment with SNB-75, 21.6 µM (inactive); in the experiment on SNB-19 it was 5.07 µM (inactive).

(Values after ChEMBL document CHEMBL1201862, “PubChem BioAssay data set” (2004).)
